Assay results from patent publication US9982005B2, “Macrolides and methods of their preparation and use” (President and Fellows of Harvard College, priority 2013, dated 2018).
In brackets after ≈: the same amount, converted by molar mass. Read-outs that look alike come from different tables or passages of the source.

Tests used:
Type in all cases: cell-based
[1] = system: BS1723 B. subtilis BS168 WT wild type; assay: broth dilution MIC, B. subtilis BS1723; conditions: Bacillus subtilis, BS1723 B. subtilis BS168 WT wild type; read-out: MIC
Source text: (§1) We have collected MIC data for a total of 50 novel macrolides that this platform has produced against over 21 unique strains of B. subtilis, E. coli, S. aureus, S. pneumoniae, and H. influenzae, including several multidrug-resistant strains, with a special focus on macrolide resistant mechanisms (vide supra). Azithromycin was included as a control macrolide. CLSI standard procedures for broth dilution MIC determination were used. […] These genotypes can be constitutive or inducible. The finding that C4-epi (unnatural) isomers of the “azaketolide” macrolide class have enhanced activities relative to C4 natural isomers is very exciting.

EC878 E. coli tolC = assay: broth dilution MIC, E. coli EC878; conditions: Escherichia coli
Source text: as §1

EC882 E. coli imp = assay: broth dilution MIC, E. coli EC882; conditions: Escherichia coli
Source text: as §1

[2] = system: SA101 S. aureus ATCC29213; assay: broth dilution MIC, S. aureus SA101; conditions: Staphylococcus aureus, ATCC29213, SA101 S. aureus ATCC29213; read-out: MIC
Source text: as §1

EC107 E. coli ATCC25922 = assay: broth dilution MIC, E. coli EC107; conditions: Escherichia coli, read-out: MIC
Source text: as §1

BS1725 B. subtilis ermC = assay: broth dilution MIC, B. subtilis BS1725; conditions: Bacillus subtilis
Source text: as §1

E. faecalis strains = assay: MIC against E. faecalis strains (Table M8); conditions: Enterococcus faecalis, E. faecalis 29212
E. coli strains = assay: MIC against E. coli strains (Table M7); conditions: Escherichia coli, ATCC25922, E. coli ATCC 25922
Source text: as §1

H. influenzae strains = assay: MIC against H. influenzae strains (Table M8); conditions: Haemophilus influenzae
Source text: as §1

A. baumannii strains = assay: MIC against A. baumannii strains (Table M8); conditions: Acinetobacter baumannii, BAA747, A. baumannii BAA747-1
S. aureus strains = assay: MIC against S. aureus strains (Table M7); conditions: Staphylococcus aureus
Source text: as §1

K. pneumoniae strains = assay: MIC against K. pneumoniae strains (Table M8); conditions: Klebsiella pneumoniae, K. pneumoniae 10031
S. pneumoniae strains = assay: MIC against S. pneumoniae strains (Tables M7, M8); conditions: Streptococcus pneumoniae
Source text: CLSI standard procedures for broth dilution MIC determination were used. […] These genotypes can be constitutive or inducible.

[3] = H. influenzae 49247, read-out: MIC H. influenzae (49247)
[4] = H. influenzae 49766, read-out: MIC H. influenzae (49766)
[5] = ATCC29213, S. aureus ATCC 29213, read-out: MIC S. aureus (ATCC 29213)
[6] = S. aureus 183, read-out: MIC S. aureus (183)
[7] = S. aureus 506, read-out: MIC S. aureus (506)
[8] = S. aureus 1708, read-out: MIC S. aureus (1708)
[9] = USA300, S. aureus USA300, read-out: MIC S. aureus (USA300)
[10] = S. pneumoniae 160, read-out: MIC S. pneumonae (160)
[11] = S. pneumoniae 1509, read-out: MIC S. pneumoniae (1509)
[12] = S. pneumoniae 1533, read-out: MIC S. pneumoniae (1533)
[13] = S. pneumoniae 1537, read-out: MIC S. pneumoniae (1537)
[14] = S. pneumoniae 49619, read-out: MIC S. pneumoniae (49619)

Row | MIC (E. faecalis strains) [µg/mL] | MIC (E. coli strains) [µg/mL] | MIC (H. influenzae strains; [3]) [µg/mL] | MIC (H. influenzae strains; [4]) [µg/mL] | MIC (A. baumannii strains) [µg/mL] | MIC (S. aureus strains; [5]) [µg/mL] | MIC (S. aureus strains; [6]) [µg/mL] | MIC (S. aureus strains; [7]) [µg/mL] | MIC (S. aureus strains; [8]) [µg/mL] | MIC (S. aureus strains; [9]) [µg/mL] | MIC (K. pneumoniae strains) [µg/mL] | MIC (S. pneumoniae strains; [10]) [µg/mL] | MIC (S. pneumoniae strains; [11]) [µg/mL] | MIC (S. pneumoniae strains; [12]) [µg/mL] | MIC (S. pneumoniae strains; [13]) [µg/mL] | MIC (S. pneumoniae strains; [14]) [µg/mL] | SMILES | also measured
1 |  |  |  |  |  |  |  |  |  |  |  |  |  |  |  |  | CC[C@H]1OC(=O)[C@H](C)C(=O)C[C@@H](O[C@@H]2OC(C)CC(N(C)C)C2O)[C@](C)(OC)C[C@@H](C)CN[C@H](C)[C@H]2N(CCCCn3cc(-c4nc5ccccc5s4)nn3)C(=O)O[C@]12C (some centres unmarked) [FSM-10788] | MIC [1]: > 32 µg/mL; MIC (EC878 E. coli tolC): 1 µg/mL (≈ 1.17 µM); MIC (EC882 E. coli imp): 0.0625 µg/mL (≈ 0.073 µM); MIC [2]: > 32 µg/mL; MIC (EC107 E. coli ATCC25922): > 32 µg/mL; MIC (BS1725 B. subtilis ermC; BS1725 B. subtilis ermC (+ery)): > 32 µg/mL; MIC (BS1725 B. subtilis ermC; BS1725 B. subtilis ermC (−ery)): > 32 µg/mL
2 |  |  |  |  |  |  |  |  |  |  |  |  |  |  |  |  | CC[C@H]1OC(=O)[C@H](C)C(=O)C[C@@H](O[C@@H]2OC(C)CC(N(C)C)C2O)[C@](C)(OC)C[C@@H](C)CN(C(C)=O)[C@H](C)[C@H]2N(CCCCN=[N+]=[N-])C(=O)O[C@]12C (some centres unmarked) [FSM-10789] | MIC [1]: > 32 µg/mL; MIC (EC878 E. coli tolC): 4 µg/mL (≈ 5.41 µM); MIC (EC882 E. coli imp): 8 µg/mL (≈ 10.8 µM); MIC [2]: > 32 µg/mL; MIC (EC107 E. coli ATCC25922): > 32 µg/mL; MIC (BS1725 B. subtilis ermC; BS1725 B. subtilis ermC (+ery)): > 32 µg/mL; MIC (BS1725 B. subtilis ermC; BS1725 B. subtilis ermC (−ery)): > 32 µg/mL
3 | 32 (≈ 35.8 µM) | > 32 | 8 (≈ 8.95 µM) | 32 (≈ 35.8 µM) | > 32 | > 32 | > 32 | > 32 | > 32 | > 32 | 16 (≈ 17.9 µM) | 8 (≈ 8.95 µM) | > 32 | > 32 | > 32 | 2 (≈ 2.24 µM) | CC[C@H]1OC(=O)[C@H](Cc2cn[nH]c2)C(=O)[C@H](C)[C@@H](O[C@@H]2OC(C)CC(N(C)C)C2O)[C@](C)(OC)C[C@@H](C)CN[C@H](C)[C@H]2N(CCCCn3cc(-c4cccc(N)c4)nn3)C(=O)O[C@]12C (some centres unmarked) [FSM-56192] | 
4 | 8 (≈ 8.78 µM) | 32 (≈ 35.1 µM) | 4 (≈ 4.39 µM) | 16 (≈ 17.6 µM) | > 32 | 32 (≈ 35.1 µM) | > 32 | > 32 | 16 (≈ 17.6 µM) | 32 (≈ 35.1 µM) | 8 (≈ 8.78 µM) | 2 (≈ 2.19 µM) | 32 (≈ 35.1 µM) | > 32 | > 32 | 1 (≈ 1.1 µM) | CC[C@H]1OC(=O)[C@H](Cc2cncs2)C(=O)[C@H](C)[C@@H](O[C@@H]2OC(C)CC(N(C)C)C2O)[C@](C)(OC)C[C@@H](C)CN[C@H](C)[C@H]2N(CCCCn3cc(-c4cccc(N)c4)nn3)C(=O)O[C@]12C (some centres unmarked) [FSM-56216] | 
5 | 0.25 (≈ 0.276 µM) | 32 (≈ 35.4 µM) | 2 (≈ 2.21 µM) | 8 (≈ 8.85 µM) | 32 (≈ 35.4 µM) | 0.5 (≈ 0.553 µM) | > 32 | > 32 | 0.5 (≈ 0.553 µM) | 0.5 (≈ 0.553 µM) | 8 (≈ 8.85 µM) | ≤ 0.0625 | 1 (≈ 1.11 µM) | 32 (≈ 35.4 µM) | 32 (≈ 35.4 µM) | ≤ 0.0625 | CC[C@H]1OC(=O)[C@H](C)C(=O)[C@H](C)[C@@H](O[C@@H]2OC(C)CC(N(C)C)C2O)[C@](C)(OC)C[C@@H](C)CN[C@H](Cc2ccccc2)[C@H]2N(CCCCn3cc(-c4cccc(N)c4)nn3)C(=O)O[C@]12C (some centres unmarked) [FSM-60353] | 
6 | 2 (≈ 2.03 µM) | > 32 | 8 (≈ 8.14 µM) | 32 (≈ 32.6 µM) | > 32 | 2 (≈ 2.03 µM) | > 32 | > 32 | 2 (≈ 2.03 µM) | 2 (≈ 2.03 µM) | > 32 | 0.5 (≈ 0.509 µM) | 4 (≈ 4.07 µM) | 32 (≈ 32.6 µM) | 32 (≈ 32.6 µM) | 0.5 (≈ 0.509 µM) | CC[C@H]1OC(=O)[C@H](C)C(=O)[C@H](C)[C@@H](O[C@@H]2OC(C)CC(N(C)C)C2O)[C@](C)(OC)C[C@@H](C)CN[C@H](Cc2cccc(Br)c2)[C@H]2N(CCCCn3cc(-c4cccc(N)c4)nn3)C(=O)O[C@]12C (some centres unmarked) [FSM-60415] | 
7 | 0.25 (≈ 0.308 µM) | 4 (≈ 4.93 µM) | 0.5 (≈ 0.616 µM) | 2 (≈ 2.46 µM) | 16 (≈ 19.7 µM) | 1 (≈ 1.23 µM) | > 32 | > 32 | 4 (≈ 4.93 µM) | 2 (≈ 2.46 µM) | 2 (≈ 2.46 µM) | 0.125 (≈ 0.154 µM) | 4 (≈ 4.93 µM) | > 32 | > 32 | ≤ 0.0625 | CC[C@H]1OC(=O)[C@H](C)C(=O)[C@H](C)[C@@H](O[C@@H]2OC(C)CC(N(C)C)C2O)[C@](C)(OC)C[C@@H](C)CN[C@H](C)[C@H]2N(C/C=C/Cn3cc(-c4ccccn4)nn3)C(=O)O[C@]12C (some centres unmarked) [FSM-70153] | 
8 | 8 (≈ 17.5 µM) | 1 (≈ 2.19 µM) | 4 (≈ 8.74 µM) | 8 (≈ 17.5 µM) | 0.5 (≈ 1.09 µM) | 0.25 (≈ 0.546 µM) | 16 (≈ 35 µM) | 2 (≈ 4.37 µM) | 0.5 (≈ 1.09 µM) | 0.25 (≈ 0.546 µM) | 0.5 (≈ 1.09 µM) | 8 (≈ 17.5 µM) | 16 (≈ 35 µM) | 8 (≈ 17.5 µM) | 8 (≈ 17.5 µM) | 0.25 (≈ 0.546 µM) | CN(C)c1ccc(O)c2c1C[C@H]1C[C@H]3[C@H](N(C)C)C(O)=C(C(N)=O)C(=O)[C@@]3(O)C(O)=C1C2=O [Minocycline, minocycline, reference compound] | 
